# According to US20110269699A1, “CANCER THERAPY” (priority 2008, published 2011):
# What was measured:
# [1] = tested on: 229Eμ-myc/Bcl-2 lymphomas; experiment: In vitro cell death analysis, time course; format: cell-based, mouse
# Excerpt: (§1) The primary function of prosurvival Bcl-2 proteins is to inhibit the activity of Bak and Bax proteins and thereby protect the mitochondrial membrane from damage (Cory et al., Nat. Rev. Cancer 2:647-656, 2002). To determine if the induction of apoptosis mediated by romidepsin in 4242Eμ-myc/Bcl-2 and 229Eμ-myc/Bcl-2 lymphomas was via perturbation of the mitochondrial membrane or through some other mechanism, HDACi-induced mitochondrial outer membrane permeabilization (MOMP) was quantitated by staining with tetramethylrhodamine ethyl ester (Molecular Probes).
# (§2) Next, the cell cycle profiles of Eμ-myc/Bcl-2 lymphomas treated with oxamflatin and romidepsin over 3 days were assessed.
# Eμ-myc lymphoma cells (5×10^5/mL) were incubated in the presence of the indicated compounds for 20 h in 1 mL cell culture medium in 24-well plates (Greiner Bio-One). Viability of cells as measured by trypan blue exclusion assay, propidium iodide uptake, Annexin V staining, cell cycle analysis, or tetramethylrhodamine ethyl ester staining were done as described (Lindemann et al., Proc. Nat. Acad. Sci. USA 104:8071-8078, 2007).
# [2] = tested on: 4242Eμ-myc/Bcl-2 lymphomas; experiment: In vitro cell death analysis, time course; format: cell-based, mouse; settings: 3.0 nmol/L; up to 72 h
# Excerpt: as §1
# (§3) […] Viability of cells as measured by trypan blue exclusion assay, propidium iodide uptake, Annexin V staining, cell cycle analysis, or tetramethylrhodamine ethyl ester staining were done as described (Lindemann et al., Proc. Nat. Acad. Sci. USA 104:8071-8078, 2007).
# [3] = tested on: 226Eμ-myc/Bcl-2 lymphomas; experiment: Cell cycle analysis of Eμ-myc/Bcl-2 cells treated with HDACi; format: cell-based, mouse; settings: 226/Bcl-2
# Description: as §2, §3
# [4] = tested on: 4242Eμ-myc/Bcl-2 lymphomas; experiment: as above; format: cell-based, mouse; settings: 4242/Bcl-2
# Description: as §2, §3
# [5] = tested on: 226Eμ-myc/Bcl-2 lymphomas; experiment: In vivo apoptosis assay; set-up: species or system C57BL/6 mice; settings: 5.6 mg/kg i.v.; even at 36 h
# Description: (§4) For in vivo apoptosis assays, C57BL/6 mice were injected with Eμ-myc lymphomas (5×10^5 cells per animal) and after 10 to 15 days on which lymph nodes became well-palpable romidepsin (5.6 mg/kg) was administered i.v. After the indicated time points, mice were sacrificed and cells were harvested from brachial lymph nodes for fluorescence-activated cell sorting-based assays to measure apoptotic signaling (Lindemann et al., Proc. Nat. Acad. Sci. USA 104:8071-8078, 2007). To assess therapeutic efficacy of romidepsin, C57BL/6 mice were injected with Eμ-myc lymphomas of the indicated genotypes i.v. (5×10^5 cells per animal). Peripheral WBC counts were then monitored until they exceeded 13×10^3/μL (Sysmex Hematology Analyzer K-1000) and romidepsin was administered at 5.6 mg/kg i.v. once every 4 days for a total of four injections. […] Mice in the control cohort received the corresponding amount of vehicle. Cohorts consisted of 8 to 11 mice each, 2 to 3 independently derived lymphomas per genotype. Peripheral WBC counts and body weights were recorded weekly. On signs of major distress or when lymphomas were relapsing as indicated by enlarged brachioaxial lymph nodes, mice were euthanized and a necropsy was done. For analysis of therapeutic efficacy, tumor-induced mortality “events” were recorded. Kaplan-Meier analysis was done and comparisons made using the log-rank (Mantel-Cox) test (MedCalc software version 8.0.2.0).
# [6] = tested on: 229Eμ-myc/Bcl-2 lymphomas; experiment: In vivo apoptosis assay; set-up: species or system C57BL/6 mice; settings: 5.6 mg/kg i.v.; later time points (>24 h)
# Description: as §4
# [7] = tested on: Eμ-myc/Bcl-2 lymphomas; experiment: In vivo apoptosis assay; set-up: species or system C57BL/6 mice; settings: all four Eμ-myc/Bcl-2 lymphomas; 5.6 mg/kg i.v.; 24 h after exposure
# Description: as §4
# [8] = tested on: 102Eμ-myc/Bcl-2 lymphomas; experiment: In vivo apoptosis assay; set-up: species or system C57BL/6 mice; settings: 5.6 mg/kg i.v.; even at 48 h
# Description: as §4
# [9] = tested on: acetylated histones H3 and H4; experiment: Western blot analysis of histone acetylation status; format: cell-based, mouse; settings: for histone acetylation: 3.0 nmol/L, 2, 8, 24 h
# Description: Eμ-myc lymphoma cells were lysed in lysis buffer [0.15 mol/L NaCl, 10 mmol/L Tris-HCl (pH 7.4), 5 μmol/L EDTA, 1% Triton X-100] supplemented with protease inhibitors (leupeptin, pepstatin, and phenylmethylsulfonyl fluoride; Sigma-Aldrich) as described previously (Lindemann et al., Proc. Nat. Acad. Sci. USA 104:8071-8078, 2007). Proteins (30-50 μg) were separated on 10% or 15% SDS polyacrylamide gels electroblotted onto Immobilon-P […] membranes (Millipore). Membranes were incubated with the following antibodies: anti-mouse Bcl-2 (BD PharMingen), anti-mouse Bcl-XL (BD PharMingen), anti-mouse Bcl-w (Chemicon Australia), anti-mouse Mcl-1 (Rockland), anti-mouse A1 (Sapphire Biosciences), anti-Flag tag (Sigma-Aldrich), anti-acetylated histone H3 and antiacetylated histone H4 (Upstate Biosystems), anti-β actin (Sigma-Aldrich), and anti-tubulin (Sigma-Aldrich) overnight at 4° C. followed by subsequent incubation with horseradish peroxidase-conjugated secondary antibodies (DAKO) Immunoreactive bands were visualized by enhanced chemiluminescence (Amersham).
# [10] = tested on: 226Eμ-myc/Bcl-2 lymphomas; experiment: In vitro cell death analysis, time course; format: cell-based, mouse; settings: 3.0 nmol/L; up to 72 h
# [11] = tested on: 4242Eμ-myc/Bcl-XL lymphomas; experiment: In vitro cell death analysis of Bcl-XL overexpressing lymphomas; format: cell-based, mouse
# Excerpt: To determine if increased expression of Bcl-XL could confer resistance to romidepsin, 4242Eμ-myc/Bcl-XL lymphomas were produced and tested for sensitivity to HDACi.
# as §3
substance,measurement,setting,value
"(1S,4S,10S,16E,21R)-7-[(2Z)-ethylidene]-4,21-diisopropyl-2-oxa-12,13-dithia-5,8,20,23-tetraazabicyclo[8.7.6]tricos-16-ene-3,6,9,19,22-pentanone [Romidepsin]",cell killing in time course,"[1]; 3.0 nmol/L, up to 72 h",could kill
same,DNA fragmentation (sub-G1) indicative of apoptosis,"[1]; over 3 days, data not shown",increase in the percentage of cells showing DNA fragmentation
same,cell killing in time course,[2],could kill
same,% G1,[3]; 24 hr,48.6%
same,% G2/M,[3]; 24 hr,26.6%
same,% S phase,[3]; 24 hr,16.4%
same,% subG1,[3]; 24 hr,3.7%
same,% G1,[3]; 48 hr,52.3%
same,% G2/M,[3]; 48 hr,27.1%
same,% S phase,[3]; 48 hr,13.5%
same,% subG1,[3]; 48 hr,3.7%
same,% G1,[3]; 72 hr,78.3%
same,% G2/M,[3]; 72 hr,8.7%
same,% S phase,[3]; 72 hr,2.5%
same,% subG1,[3]; 72 hr,7.8%
same,% G1,[4]; 24 hr,66.3%
same,% G2/M,[4]; 24 hr,11.4%
same,% S phase,[4]; 24 hr,2.1%
same,% subG1,[4]; 24 hr,19.3%
same,% G1,[4]; 48 hr,53.2%
same,% G2/M,[4]; 48 hr,8.5%
same,% S phase,[4]; 48 hr,4.6%
same,% subG1,[4]; 48 hr,27.2%
same,% G1,[4]; 72 hr,34.8%
same,% G2/M,[4]; 72 hr,7.1%
same,% S phase,[4]; 72 hr,3.0%
same,% subG1,[4]; 72 hr,55.3%
same,apoptosis in vivo,[5],remained insensitive
same,apoptosis in vivo,[6],did undergo apoptosis at later time points
same,apoptosis in vivo,[7],resistant to romidepsin-induced apoptosis
same,apoptosis in vivo,[8],remained insensitive
same,histone acetylation,[9]; 226Eμ-myc/Bcl-2 lymphomas,equivalent increase in histone acetylation
same,acetylation of histones H3 and H4,"[9]; 4242Eμ-myc lymphomas, 3.0 nmol/L romidepsin, 0.1 mmol/L oxamflatin, 24-h time course",induced equivalent acetylation of histones H3 and H4
same,histone acetylation,[9]; 4242Eμ-myc/Bcl-2 lymphomas,equivalent increase in histone acetylation
same,cell killing in time course,[10],remained relatively insensitive
same,plasma membrane integrity and mitochondrial function,[11]; increasing concentrations over 24 h,unaffected
same,cell cycle analysis,[11]; increasing doses,arrested in the G1 phase
